According to patent US20180214463A1, “USE OF PHYTIC ACID OR THE SALTS THEREOF, ALONE OR COMBINED WITH B6 VITAMERS, FOR PREVENTING THE FORMATION OF ADVANCED GLYCATION END-PRODUCT” (UNIVERSITAT DE LES ILLES BALEARS, priority 2015, published 2018):

Key:
[1] = system: diabetic patients; assay: Clinical trial of phytate (phytin) in diabetic patients: plasma HbA1c and AGEs, urinary phytate; assay type: in vivo, human
[2] = system: formation of AGEs; assay: In vitro formation of AGEs (ribose, arginine, lysine, Fe3+; fluorescence at 7 days); assay type: biochemical; details: 37° C., vs control without inhibitors
Experimental: In an in vitro study, the inhibiting effect of phytate alone or in combination with pyridoxamine on the formation of AGEs was compared (see FIG. 2). […] In these studies, the formation of AGEs was induced by incubating a reaction mixture containing ribose (200 mM) (taken as the model reducing sugar), 1 mM arginine, 2 mM lysine (as glycation targets), and 2 μM Fe^3 (as a glycation catalyzer) with various concentrations of phytate and pyridoxamine alone or in combination at 37° C. for 7 days (in a 0.2 M phosphate buffer). The quantity of AGEs present at 7 days was determined by fluorescence.

Row | SMILES | decrease in plasma AGEs ([1]; 1,140 mg phytate (as phytin) daily for 3 months, 33 diabetic patients, p<0.001) [%] | decrease in plasma glycated hemoglobin (HbA1c) ([1]; 1,140 mg phytate (as phytin) daily for 3 months, 33 diabetic patients, p=0.017) [%] | increase in the urinary excretion of phytate ([1]; 1,140 mg phytate (as phytin) daily for 3 months, p=0.026) [%] | plasma levels of HbA1c and AGEs after withdrawal ([1]; three months without phytate, after three months of consuming it) | inhibition of the formation of AGEs ([2]; 1 μM inhibitor alone) [%] | inhibition of the formation of AGEs ([2]; 2 μM inhibitor alone) [%] | inhibition of the formation of AGEs ([2]; 2.5 μM inhibitor alone) [%]
1 | O=P(O)(O)O[C@H]1[C@H](OP(=O)(O)O)[C@@H](OP(=O)(O)O)[C@H](OP(=O)(O)O)[C@@H](OP(=O)(O)O)[C@H]1OP(=O)(O)O [phytate, myo-inositol-hexaphosphate] | ~25.1 | ~3.9 | 33.6 | returning to levels similar to the baselines | 12.7 | 19.9 | 
2 | Cc1ncc(CO)c(CN)c1O [pyridoxamine] |  |  |  |  | 17.5 |  | 28.2
